System: hES cells
Assay: Double immunostaining GCTM-2/PCNA of dissociated hES cells (Example 4)
Format: cell-based, human
Conditions: 4 days without serum; S1P 10 μM
Experimental: Double staining experiments were performed using antibodies for PCNA and GCTM-2.
For immunostaining, hES-3 cells were coated on chamber slides after mechanical dissociation, in order to obtain a monolayer culture. The day following the plating, cells were incubated with the different agents in a media depleted in serum. Media was changed the 2nd day and the cells were fixed 4 days after the first treatment.
Cells were washed in PBS, fixed with MeOH, and immunostaining was performed, using the specific stem cell marker antibody GCTM-2, and the specific cell proliferation marker PCNA. Cells were then washed and the nucleuses were stained with Hoechst-33342 (1 μg/ml). Slides were mounted and then observed by fluorescent microscopy. Cells were then counted in order to determine the ratio of proliferating stem cells within the overall population.

## CCCCCCCCCCCCC/C=C/[C@@H](O)[C@@H](N)COP(=O)(O)O [S1P, Sphingosine-1-phosphate]
  proliferating rate of hES cells (PCNA) versus control: no marked difference

Source: patent US7604990B2, “Methods of regulating differentiation in stem cells” (ES Cell International Pte Ltd., priority 2002, dated 2009)
